From patent US11660293B2, “Substituted 2-azabicyclo[3.1.1]heptane and 2-azabicyclo[3.2.1]octane derivatives as orexin receptor antagonists” (Chronos Therapeutics Limited, priority 2017, dated 2023)

Assays:
[1] = molecular target: human Orexin type 2 receptors (Homo sapiens (Human), UniProt O43614); test: Intracellular calcium measurement (FLIPR), antagonism of Orexin-A at EC80 in CHO-hOX2 cells
[2] = molecular target: human Orexin type 1 receptors (Homo sapiens (Human), UniProt O43613); test: Intracellular calcium measurement (FLIPR), antagonism of Orexin-A at EC80 in CHO-hOX1 cells
human Orexin type 1 receptors, sequence (O43613 whole entry): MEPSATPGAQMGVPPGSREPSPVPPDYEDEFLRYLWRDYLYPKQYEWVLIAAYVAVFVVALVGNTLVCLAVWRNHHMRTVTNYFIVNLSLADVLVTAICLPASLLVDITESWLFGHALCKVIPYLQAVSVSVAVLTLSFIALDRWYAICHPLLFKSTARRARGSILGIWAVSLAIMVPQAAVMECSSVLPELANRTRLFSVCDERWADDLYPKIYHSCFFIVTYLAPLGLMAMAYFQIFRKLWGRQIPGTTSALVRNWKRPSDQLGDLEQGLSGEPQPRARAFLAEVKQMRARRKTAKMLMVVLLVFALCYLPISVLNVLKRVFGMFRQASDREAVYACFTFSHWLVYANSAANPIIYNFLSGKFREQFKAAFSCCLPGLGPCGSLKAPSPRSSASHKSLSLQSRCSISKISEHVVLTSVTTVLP

human Orexin type 2 receptors, sequence (O43614 whole entry): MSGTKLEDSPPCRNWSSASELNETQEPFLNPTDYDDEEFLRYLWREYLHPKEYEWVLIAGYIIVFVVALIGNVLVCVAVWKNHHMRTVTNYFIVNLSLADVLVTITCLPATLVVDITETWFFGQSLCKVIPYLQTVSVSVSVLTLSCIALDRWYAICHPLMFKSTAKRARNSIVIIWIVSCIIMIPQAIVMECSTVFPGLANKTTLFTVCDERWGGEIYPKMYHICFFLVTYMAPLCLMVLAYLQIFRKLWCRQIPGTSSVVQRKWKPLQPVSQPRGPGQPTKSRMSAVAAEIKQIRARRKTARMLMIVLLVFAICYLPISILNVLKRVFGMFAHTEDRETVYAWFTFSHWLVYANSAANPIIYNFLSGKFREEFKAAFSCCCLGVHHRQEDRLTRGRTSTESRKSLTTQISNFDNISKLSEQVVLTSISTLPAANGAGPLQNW

Compound | Ki [1] | Ki [2]
Cc1nc(C(=O)N2C3CC(C3)[C@@H](C)[C@@H]2COc2ccc(F)cc2)c(-c2ccccc2)s1 (single isomer, unassigned) [Example 67, (3S,4S or 3R,4R) 3-(4-fluorophenoxymethyl)-4-methyl-2-(2-methyl-5-phenyl-1,3-thiazole-4-carbonyl)-2-azabicyclo[3.1.1]heptane] | 562 nM | 1.38 nM
Cc1nc(C(=O)N2C3CC(C3)[C@H](C)[C@@H]2COc2ccc(F)cc2)c(-c2ccccc2)s1 (single isomer, unassigned) [Example 68, (3S,4R or 3R,4S) 3-(4-fluorophenoxymethyl)-4-methyl-2-(2-methyl-5-phenyl-1,3-thiazole-4-carbonyl)-2-azabicyclo[3.1.1]heptane] | 138 nM | 0.741 nM
Cc1ccc(-c2ncccn2)c(C(=O)N2C3CC(C3)[C@H](C)[C@H]2COc2ccc(F)cc2)c1 (single isomer, unassigned) [Example 70, (3S,4S or 3R,4R) 3-(4-fluorophenoxymethyl)-4-methyl-2-[5-methyl-2-(pyrimidin-2-yl)benzoyl]-2-azabicyclo[3.1.1]heptane] | 2450 nM | 13.5 nM
Cc1ccc(-c2ncccn2)c(C(=O)N2C3CC(C3)[C@@H](C)[C@H]2COc2ccc(F)cc2)c1 (single isomer, unassigned) [Example 71, (3S,4R or 3R,4S) 3-(4-fluorophenoxymethyl)-4-methyl-2-[5-methyl-2-(pyrimidin-2-yl)benzoyl]-2-azabicyclo[3.1.1]heptane] | 89.1 nM | 3.39 nM
Cc1ccc(-c2ncccn2)c(C(=O)N2C3CC(C3)[C@H](C)[C@@H]2COc2ccc(F)cn2)n1 (single isomer, unassigned) [Example 81, (3S,4R or 3R,4S) 3-{[(5-fluoropyridin-2-yl)oxy]methyl}-4-methyl-2-[6-methyl-3-(pyrimidin-2-yl)pyridine-2-carbonyl]-2-azabicyclo[3.1.1]heptane] | 58.9 nM | 9.77 nM
Cc1ccc(-c2ncccn2)c(C(=O)N2C3CC(C3)[C@@H](C)[C@@H]2COc2ccc(F)cn2)n1 (single isomer, unassigned) [Example 82, (3S,4S or 3R,4R) 3-{[(5-fluoropyridin-2-yl)oxy]methyl}-4-methyl-2-[6-methyl-3-(pyrimidin-2-yl)pyridin-2-carbonyl]-2-azabicyclo[3.1.1]heptane] | 2240 nM | 10 nM

Results, then the molecule that gave them:

Ki [1] | Ki [2] | Compound
110 nM | 24 nM | Cc1ccc(-c2ncccn2)c(C(=O)N2C(COc3ccc(Cl)cn3)CC3CC2C3)c1 (single isomer, unassigned) [Example 33, (3S or 3R) 3-{[(5-chloropyridin-2-yl)oxy]methyl}-2-{[5-methyl-2-(pyrimidin-2-yl)phenyl]carbonyl}-2-azabicyclo[3.1.1]heptane]
200 nM | 67.6 nM | Cc1ccc(-c2ncccn2)c(C(=O)N2C(COc3ccc(C(F)(F)F)cn3)CC3CC2C3)c1 (single isomer, unassigned) [Example 36, (3S or 3R) 2-{[5-methyl-2-(pyrimidin-2-yl)phenyl]carbonyl}-3-({[5-(trifluoromethyl)pyridin-2-yl]oxy}methyl)-2-azabicyclo[3.1.1]heptane]
107 nM | 18.2 nM | Cc1ccc(-c2ncccn2)c(C(=O)N2C(CCOc3ccc(F)cc3)CC3CC2C3)c1 (single isomer, unassigned) [Example 42, (3S or 3R) 3-[2-(4-fluorophenoxy)ethyl]-2-[5-methyl-2-(pyrimidin-2-yl)benzoyl]-2-azabicyclo[3.1.1]heptane]
105 nM | 10.5 nM | Cc1ccc(-c2ncccn2)c(C(=O)N2C3CC(C3)[C@@H](C)C2COc2ccc(F)cn2)c1 (single isomer, unassigned) [Example 75, (3S,4R or 3R,4S) 3-{[(5-fluoropyridin-2-yl)oxy]methyl}-4-methyl-2-[5-methyl-2-(pyrimidin-2-yl)benzoyl]-2-azabicyclo[3.1.1]heptane]
977 nM | 91.2 nM | Cc1ccc(-c2ncccn2)c(C(=O)N2C(COc3ccc(Cl)cc3)CC3CC2C3)c1 (stereo not shown) [Example 19]
